Data reported in patent US20140025310A1, “METHOD FOR DETERMINING THE EFFICACY OF A COMBINATION THERAPY” (priority 2009, published 2014).

Columns and labels:
patient's virus = test: Susceptibility score of the patient's virus to a drug (% activity from clinical cut-off models); set-up: species or system HIV-1; conditions: 1 = fully sensitive, 0 = fully resistant
Text: Interpretation algorithms provide a resistance call for each available HIV drug. Often this is a three way classification i.e. sensitive (a score of 1), intermediate resistant (a score of 0.5) or resistant (a score of 0). For VircoType (WO 01/79540) the interpretation is for instance based on a statistical model, leading to the definition of so called clinical cut-offs (CCO), that predicts the % activity of a drug (i.e. the susceptibility score) as a function of fold change at the start of the regimen. The % activity left was calculated by dividing the predicted viral load change for the patients' virus with a certain resistance profile by the predicted viral load for a wild-type virus. This is an ordinal value that varies between 0% (or a score of 0) and 100% (or a score of 1). Based on these values, clinical cutoffs (phenotypic threshold values) were derived to classify a virus sample into maximal response, reduced response and minimal response as described in WO 2005/086061.
(§1) Therefore, statistical models were applied to handle these differences. […] E.g.

HIV-1 = conditions: difference in viral load response (log scale) vs ritonavir boosted lopinavir after 8 weeks of stable treatment; double robust estimation
Text: as §1

Row | Compound | susceptibility score (patient's virus; Patient 1 virus) | susceptibility score (patient's virus; Patient 2 virus) | Weight (drug weight) (HIV-1)
1 | O=c1[nH]cnc2c1ncn2[C@H]1CC[C@@H](CO)O1 [DDI] | 1 |  | 
2 | O=C1Nc2ccc(Cl)cc2[C@@](C#CC2CC2)(C(F)(F)F)O1 [EFV] |  | fully active | 
3 | CC(C)OC(=O)OCOP(=O)(CO[C@H](C)Cn1cnc2c(N)ncnc21)OCOC(=O)OC(C)C.O=C(O)/C=C/C(=O)O [TDF] | 1 | 1 | 
4 | atazanavir [ATV/r] |  | 1 | −0.02
5 | lopinavir [LPV/r] | 0.24 |  | 0
